Reference: patent publication US20100298141A1, “SUBSTITUTED PYRIDINE N-OXIDE HERBICIDES” (E. I. DU PONT DE NEMOURS AND COMPANY, priority 2007, published 2010)

Columns and labels:
wild oat = assay: Test C pre-/postemergence test; type: in vivo, Avena fatua
Method in brief: (§1)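 Seeds were planted and treated preemergence with test chemical in a non-phytotoxic solvent mixture containing surfactant. Postemergence applications of the same formulation went onto plants 2 to 18 cm tall (1- to 4-leaf stage). A dash marks no test result.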

common ragweed = assay: Test C pre-/postemergence test; type: in vivo, Ambrosia elation
Method in brief: as §1

rice = assay: Test C flooded paddy test; type: in vivo, Oryza sativa; conditions: Flood
Method in brief: (§2)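 Under a constant 3 cm flood, test compounds went directly into the paddy water. Following 13 to 15 days of greenhouse growth, treated species and controls were compared by eye.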

duck salad = assay: Test C flooded paddy test; type: in vivo, Heteranthera limosa; conditions: Flood
Method in brief: as §2

corn = assay: Test A pre-/postemergence greenhouse test; type: in vivo, Zea mays; conditions: for Corn plant response rating: 0 to 100 scale; for Plant response rating, Corn: 0 to 100 scale where 0 is no effect and 100 is complete control
Method in brief: (§3)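 Two application timings were run side by side in the greenhouse. Before emergence, compound went onto the soil surface of loam–sand pots as a directed spray; after emergence, plants at 2–10 cm and the one- to two-leaf stage were treated. Visual injury versus controls was rated at approximately day ten.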

Goosegrass = assay: Test C pre-/postemergence test; type: in vivo, Eleusin indica
Method in brief: as §1

johnsongrass = assay: Test C pre-/postemergence test; type: in vivo, Sorghum halepense
Method in brief: as §1

bermudagrass = assay: Test C pre-/postemergence test; type: in vivo, Cynodon dactylon
Method in brief: as §1

giant foxtail [1] = assay: Test A pre-/postemergence greenhouse test; type: in vivo, Setaria faberi; conditions: for Foxtail, Giant plant response rating: 0 to 100 scale; for Plant response rating, Foxtail, Giant: 0 to 100 scale where 0 is no effect and 100 is complete control
Method in brief: as §3

lambsquarters = assay: Test C pre-/postemergence test; type: in vivo, Chenopodium album
Method in brief: as §1

giant foxtail [2] = assay: Test C pre-/postemergence test; type: in vivo, Setaria faberii
Method in brief: as §1

velvetleaf [3] = assay: Test C pre-/postemergence test; type: in vivo, Abutilon theophrasti
Method in brief: as §1

eastern black nightshade = assay: Test C pre-/postemergence test; type: in vivo, Solanum ptycanthum
Method in brief: as §1

wheat = assay: Test A pre-/postemergence greenhouse test; type: in vivo, Triticum aestivum; conditions: for Wheat plant response rating: 0 to 100 scale; for Plant response rating, Wheat: 0 to 100 scale where 0 is no effect and 100 is complete control
Method in brief: as §3

Surinam grass = assay: Test C pre-/postemergence test; type: in vivo, Brachiaria decumbens
Method in brief: as §1

velvetleaf [4] = assay: Test A pre-/postemergence greenhouse test; type: in vivo, Abutilon theophrasti; conditions: for Velvetleaf plant response rating: 0 to 100 scale; for Plant response rating, Velvetleaf: 0 to 100 scale where 0 is no effect and 100 is complete control
Method in brief: as §3

redroot pigweed = assay: Test A pre-/postemergence greenhouse test; type: in vivo, Amaranthus retroflexus; conditions: for Pigweed plant response rating: 0 to 100 scale; for Plant response rating, Pigweed: 0 to 100 scale where 0 is no effect and 100 is complete control
Method in brief: as §3

barnyardgrass = assay: Test C flooded paddy test; type: in vivo, Echinochloa crus-galli; conditions: Flood
Method in brief: as §2

[5] = 31 g ai/ha, Preemergence, scale 0 to 100
[6] = 62 g ai/ha, preemergence, scale 0 (no effect) to 100 (complete control)
[7] = preemergence, 125 g ai/ha, scale 0 (no effect) to 100 (complete control)
[8] = 31 g ai/ha, scale 0 to 100 (0 no effect, 100 complete control)
[9] = 62 g ai/ha, scale 0 to 100, 0 no effect, 100 complete control, 13 to 15 days
[10] = 125 g ai/ha, scale 0 to 100, 0 no effect, 100 complete control, 13 to 15 days
[11] = 250 g ai/ha, scale 0 to 100 (0 no effect, 100 complete control)
[12] = Postemergence, 500 g ai/ha, 0 is no effect, 100 is complete control
[13] = Postemergence, 125 g ai/ha, 0 is no effect, 100 is complete control
[14] = Preemergence, 125 g ai/ha, 0 no effect, 100 complete control
[15] = 62 g ai/ha, Preemergence, scale 0 to 100
[16] = 125 g ai/ha, preemergence, scale 0 (no effect) to 100 (complete control)
[17] = Preemergence, 31 g ai/ha, scale 0 to 100 (0 no effect, 100 complete control)
[18] = preemergence, 250 g ai/ha, scale 0 (no effect) to 100 (complete control)
[19] = 62 g ai/ha, scale 0 to 100 (0 no effect, 100 complete control)
[20] = 250 g ai/ha, scale 0 to 100, 0 no effect, 100 complete control, 13 to 15 days

SMILES: Cn1nc(C(F)(F)F)c(CS(=O)(=O)c2ccc(Cl)c[n+]2[O-])c1OC(F)F [Compound 7]
- Oat, Wild plant response rating (wild oat; [5]): 0
- Oat, Wild plant response rating (wild oat; [6]): 30
- Plant response rating (0 to 100), Oat, Wild (wild oat; Preemergence, 250 g ai/ha): 70
- Oat, Wild plant response rating (wild oat; [7]): 40
- Ragweed plant response rating (common ragweed; [5]): 0
- Ragweed plant response rating (common ragweed; [6]): 80
- Plant response rating (0 to 100), Ragweed (common ragweed; Preemergence, 250 g ai/ha): 100
- Ragweed plant response rating (common ragweed; [7]): 100
- Plant response rating, Rice (rice; [8]): 0
- Plant response rating, Rice (rice; [9]): 0
- Plant response rating, Rice (rice; [10]): 15
- Plant response rating, Rice (rice; [11]): 15
- Plant response rating, Ducksalad (duck salad; [8]): 30
- Plant response rating, Ducksalad (duck salad; [9]): 50
- Plant response rating, Ducksalad (duck salad; [10]): 75
- Plant response rating, Ducksalad (duck salad; [11]): 80
- Corn plant response rating (corn; [12]): 20
- Plant response rating, Corn (corn; Preemergence, 500 g ai/ha): 30
- Goosegrass plant response rating (Goosegrass; [5]): 100
- Goosegrass plant response rating (Goosegrass; [6]): 100
- Plant response rating (0 to 100), Goosegrass (Goosegrass; Preemergence, 250 g ai/ha): 100
- Goosegrass plant response rating (Goosegrass; [7]): 100
- Johnsongrass plant response rating (johnsongrass; [5]): 90
- Johnsongrass plant response rating (johnsongrass; [6]): 100
- Plant response rating (0 to 100), Johnsongrass (johnsongrass; Preemergence, 250 g ai/ha): 100
- Johnsongrass plant response rating (johnsongrass; [7]): 100
- Bermudagrass plant response rating (bermudagrass; [5]): 100
- Bermudagrass plant response rating (bermudagrass; [6]): 100
- Plant response rating (0 to 100), Bermudagrass (bermudagrass; Preemergence, 250 g ai/ha): 100
- Bermudagrass plant response rating (bermudagrass; [7]): 100
- Foxtail, Giant plant response rating (giant foxtail [1]; [13]): 30
- Foxtail, Giant plant response rating (giant foxtail [1]; [12]): 70
- Foxtail, Giant plant response rating (giant foxtail [1]; [14]): 90
- Plant response rating, Foxtail, Giant (giant foxtail [1]; Preemergence, 500 g ai/ha): 90
- Lambsquarters plant response rating (lambsquarters; [5]): 0
- Lambsquarters plant response rating (lambsquarters; [6]): 0
- Plant response rating (0 to 100), Lambsquarters (lambsquarters; Preemergence, 250 g ai/ha): 100
- Lambsquarters plant response rating (lambsquarters; [7]): 80
- Foxtail, Giant plant response rating (giant foxtail [2]; [5]): 50
- Foxtail, Giant plant response rating (giant foxtail [2]; [6]): 50
- Plant response rating (0 to 100), Foxtail, Giant (giant foxtail [2]; Preemergence, 250 g ai/ha): 100
- Foxtail, Giant plant response rating (giant foxtail [2]; [7]): 80
- Velvetleaf plant response rating (velvetleaf [3]; [6]): 0
- Plant response rating (0 to 100), Velvetleaf (velvetleaf [3]; Preemergence, 250 g ai/ha): 0
- Velvetleaf plant response rating (velvetleaf [3]; [7]): 0
- Nightshade plant response rating (eastern black nightshade; [5]): 0
- Nightshade plant response rating (eastern black nightshade; [6]): 50
- Plant response rating (0 to 100), Nightshade (eastern black nightshade; Preemergence, 250 g ai/ha): 95
- Nightshade plant response rating (eastern black nightshade; [7]): 50
- Wheat plant response rating (wheat; [13]): 0
- Wheat plant response rating (wheat; [12]): 20
- Wheat plant response rating (wheat; [14]): 20
- Plant response rating, Wheat (wheat; Preemergence, 500 g ai/ha): 50
- Surinam Grass plant response rating (Surinam grass; [6]): 20
- Plant response rating (0 to 100), Surinam Grass (Surinam grass; Preemergence, 250 g ai/ha): 70
- Surinam Grass plant response rating (Surinam grass; [7]): 30
- Velvetleaf plant response rating (velvetleaf [4]; [13]): 0
- Velvetleaf plant response rating (velvetleaf [4]; [12]): 20
- Plant response rating, Velvetleaf (velvetleaf [4]; Preemergence, 500 g ai/ha): 30
- Pigweed plant response rating (redroot pigweed; [13]): 60
- Pigweed plant response rating (redroot pigweed; [12]): 70
- Pigweed plant response rating (redroot pigweed; [14]): 100
- Plant response rating, Pigweed (redroot pigweed; Preemergence, 500 g ai/ha): 100
- Plant response rating, Barnyardgrass (barnyardgrass; [8]): 0
- Plant response rating, Barnyardgrass (barnyardgrass; [9]): 0
- Plant response rating, Barnyardgrass (barnyardgrass; [10]): 0
- Plant response rating, Barnyardgrass (barnyardgrass; [11]): 20

SMILES: C#CCOc1c(C[S+]([O-])c2cccc[n+]2[O-])c(C(F)(F)F)nn1C (stereo not drawn) [Compound 76]
- Oat, Wild plant response rating (wild oat; [15]): 50
- Oat, Wild plant response rating (wild oat; [16]): 60
- Plant response rating, Oat, Wild (wild oat; [17]): 0
- Oat, Wild plant response rating (wild oat; [18]): 95
- Ragweed plant response rating (common ragweed; [15]): 20
- Ragweed plant response rating (common ragweed; [16]): 100
- Ragweed plant response rating (common ragweed; [18]): 100
- Plant response rating, Rice (rice; [19]): 0
- Plant response rating, Rice (rice; [20]): 30
- Plant response rating, Ducksalad (duck salad; [19]): 0
- Plant response rating, Ducksalad (duck salad; [20]): 100
- Plant response rating, Corn (corn; Postemergence, 125 g ai/ha): 40
- Corn plant response rating (corn; [12]): 60
- Corn plant response rating (corn; [14]): 0
- Plant response rating, Corn (corn; Preemergence, 500 g ai/ha): 80
- Goosegrass plant response rating (Goosegrass; [15]): 95
- Goosegrass plant response rating (Goosegrass; [16]): 98
- Plant response rating, Goosegrass (Goosegrass; [17]): 80
- Goosegrass plant response rating (Goosegrass; [18]): 100
- Johnsongrass plant response rating (johnsongrass; [15]): 95
- Johnsongrass plant response rating (johnsongrass; [16]): 100
- Plant response rating, Johnsongrass (johnsongrass; [17]): 85
- Johnsongrass plant response rating (johnsongrass; [18]): 100
- Bermudagrass plant response rating (bermudagrass; 62 g ai/ha, Preemergence, scale 0 to 100 (0 no effect, 100 complete control)): 100
- Bermudagrass plant response rating (bermudagrass; [16]): 100
- Plant response rating, Bermudagrass (bermudagrass; [17]): 80
- Bermudagrass plant response rating (bermudagrass; [18]): 100
- Plant response rating, Foxtail, Giant (giant foxtail [1]; Postemergence, 125 g ai/ha): 80
- Foxtail, Giant plant response rating (giant foxtail [1]; [12]): 90
- Foxtail, Giant plant response rating (giant foxtail [1]; [14]): 90
- Plant response rating, Foxtail, Giant (giant foxtail [1]; Preemergence, 500 g ai/ha): 100
- Lambsquarters plant response rating (lambsquarters; [15]): 100
- Lambsquarters plant response rating (lambsquarters; [16]): 100
- Plant response rating, Lambsquarters (lambsquarters; [17]): 85
- Lambsquarters plant response rating (lambsquarters; [18]): 100
- Foxtail, Giant plant response rating (giant foxtail [2]; [15]): 90
- Foxtail, Giant plant response rating (giant foxtail [2]; [16]): 100
- Plant response rating, Foxtail, Giant (giant foxtail [2]; [17]): 75
- Foxtail, Giant plant response rating (giant foxtail [2]; [18]): 100
- Velvetleaf plant response rating (velvetleaf [3]; [15]): 100
- Velvetleaf plant response rating (velvetleaf [3]; [16]): 100
- Plant response rating, Velvetleaf (velvetleaf [3]; [17]): 0
- Velvetleaf plant response rating (velvetleaf [3]; [18]): 100
- Nightshade plant response rating (eastern black nightshade; [15]): 85
- Nightshade plant response rating (eastern black nightshade; [16]): 90
- Plant response rating, Nightshade (eastern black nightshade; [17]): 85
- Nightshade plant response rating (eastern black nightshade; [18]): 100
- Plant response rating, Wheat (wheat; Postemergence, 125 g ai/ha): 20
- Wheat plant response rating (wheat; [12]): 60
- Wheat plant response rating (wheat; [14]): 20
- Plant response rating, Wheat (wheat; Preemergence, 500 g ai/ha): 100
- Surinam Grass plant response rating (Surinam grass; [15]): 85
- Surinam Grass plant response rating (Surinam grass; [16]): 85
- Plant response rating, Surinam Grass (Surinam grass; [17]): 0
- Surinam Grass plant response rating (Surinam grass; [18]): 100
- Plant response rating, Velvetleaf (velvetleaf [4]; Postemergence, 125 g ai/ha): 60
- Velvetleaf plant response rating (velvetleaf [4]; [12]): 80
- Velvetleaf plant response rating (velvetleaf [4]; [14]): 50
- Plant response rating, Velvetleaf (velvetleaf [4]; Preemergence, 500 g ai/ha): 80
- Plant response rating, Pigweed (redroot pigweed; Postemergence, 125 g ai/ha): 50
- Pigweed plant response rating (redroot pigweed; [12]): 80
- Pigweed plant response rating (redroot pigweed; [14]): 70
- Plant response rating, Pigweed (redroot pigweed; Preemergence, 500 g ai/ha): 100
- Plant response rating, Barnyardgrass (barnyardgrass; [19]): 0
- Plant response rating, Barnyardgrass (barnyardgrass; [20]): 20
